Laboratory results published in patent US12391675B2, “NLRP3 modulators” (INNATE TUMOR IMMUNITY, INC., priority 2019, dated 2025).

Biological target: T1, NLRP3 (Homo sapiens, UniProt Q96P20)
T1 construct: host or cells: PMA-differentiated THP-1 cells
Experiment: Measurement of IL-1β production in PMA-differentiated THP-1 cells (NLRP3 hIL1B EC50)
Format: cell-based
Experimental: Measurement of IL-1β Production in PMA-Differentiated THP-1 Cells
THP-1 cells were purchased from the American Type Culture Collection and sub-cultured according to instructions from the supplier. Prior to experiments, cells were cultured in RPMI 1640 containing 10% heat inactivated FBS, penicillin (100 units/ml) and streptomycin (100 μg/ml), and maintained in log phase prior to experimental setup. Prior to the experiment THP-1 were treated with PMA (Phorbol 12-myristate 13-acetate) (10 μg/ml) for 24 hours. The day of the experiment the media was removed and attaching cells were treated with trypsin for 2 minutes, cells were then collected, washed with PBS (phosphate buffer saline), spin down, resuspended in 2% heat inactivated FBS with RPMI at a concentration of 1×10^6 cells/ml, and 100 μl was plated in a 96 well plate. Compounds were dissolved in dimethyl sulfoxide (DMSO) and added to the culture medium to achieve desired concentration (e.g. 100, 30, 10, 3, 1, 0.3 or 0.1 μM). Cells were incubated with compounds for 4 hours. Cell free supernatant was collected and the production of IL-1β was evaluated by ELISA. A vehicle only control was run concurrently with each experiment. Final DMSO concentration was 1%.
Measurement of IL-1β Production in PMA-Differentiated THP-1 Cells (Alternative Procedure)
THP-1 cells were purchased from the American Type Culture Collection and sub-cultured according to instructions from the supplier. Prior to experiments, cells were cultured in RPMI 1640 containing 10% heat inactivated FBS, penicillin (100 units/ml), streptomycin (100 μg/ml), HEPES (10 mM) and sodium pyruvate (1 mM) and maintained in log phase prior to experimental setup. Prior to the experiment, THP-1 cells were treated with PMA (Phorbol 12-myristate 13-acetate) (20 μg/ml) overnight. The day of the experiment, the media was removed and attached cells were treated with trypsin for 2 minutes, cells were then collected, washed with PBS (phosphate buffer saline), pelleted by centrifugation and resuspended in 2% heat inactivated FBS with RPMI at a concentration of 50,000 cells/well in a 384 well plate. Cell free supernatant was collected and the production of IL-1β was evaluated by ELISA. Compounds were dissolved in dimethyl sulfoxide (DMSO) and added to the culture medium to achieve desired concentration (e.g. 100, 30, 10, 3, 1, 0.3 or 0.1 μM). Cells were incubated with compounds for 2 hours. A vehicle only control was run concurrently with each experiment. Final DMSO concentration was 1%.
Measurement of IL-1β Production—hTRF Protocol (Second Alternative Procedure)
Serial dilutions of compounds in DMSO were added to low volume 384 well plates at 100 nl/well using an ECHO 550 acoustic dispenser (Labcyte) to achieve final starting concentration of 10 μM in assay.
THP-1 cells in RPMI (Gibco, 11875) media with 10% FBS at a density of 1×10^6 cell/ml in a T175 flask were treated with a final concentration of phorbol 12-myristate 13-acetate (PMA) (Sigma, P1585) of 50 ng/ml overnight at 37° C. at 5% CO2 for differentiation. Cells were harvested the next day after rinsing well wth dPBS using 0.5% trypsin. A cell solution was prepared of 1×10^6 cells/ml for 50,000 cells in 50 μl/well in RPMI media with 2% FBS. Cells were plated using a multichannel pipette onto the compound dilutions in Greiner, 384 well, black clear bottom tissue culture treated plates (781090). The plates were incubated in 37° C. incubator at 5% CO2 for 2 hours.
After the 2 hour incubation, the cell plates were spun in the centrifuge for 5 minutes at 1200 rpm. Using the Felix (CyBio), 8 μl of the supernatant was transferred to 384 well, low volume, white proxy plates. (Perkin Elmer, 6008230). A human IL1beta hTRF kit was used to analyze the supernatant (CISBIO, 62HIL1BPEG). The kit instructions were followed for preparing the IL1Beta standard curve and then the antibodies from the kit were diluted 1:40 rather than 1:20 as kit instructed. […]

T1 sequence (Q96P20 whole entry): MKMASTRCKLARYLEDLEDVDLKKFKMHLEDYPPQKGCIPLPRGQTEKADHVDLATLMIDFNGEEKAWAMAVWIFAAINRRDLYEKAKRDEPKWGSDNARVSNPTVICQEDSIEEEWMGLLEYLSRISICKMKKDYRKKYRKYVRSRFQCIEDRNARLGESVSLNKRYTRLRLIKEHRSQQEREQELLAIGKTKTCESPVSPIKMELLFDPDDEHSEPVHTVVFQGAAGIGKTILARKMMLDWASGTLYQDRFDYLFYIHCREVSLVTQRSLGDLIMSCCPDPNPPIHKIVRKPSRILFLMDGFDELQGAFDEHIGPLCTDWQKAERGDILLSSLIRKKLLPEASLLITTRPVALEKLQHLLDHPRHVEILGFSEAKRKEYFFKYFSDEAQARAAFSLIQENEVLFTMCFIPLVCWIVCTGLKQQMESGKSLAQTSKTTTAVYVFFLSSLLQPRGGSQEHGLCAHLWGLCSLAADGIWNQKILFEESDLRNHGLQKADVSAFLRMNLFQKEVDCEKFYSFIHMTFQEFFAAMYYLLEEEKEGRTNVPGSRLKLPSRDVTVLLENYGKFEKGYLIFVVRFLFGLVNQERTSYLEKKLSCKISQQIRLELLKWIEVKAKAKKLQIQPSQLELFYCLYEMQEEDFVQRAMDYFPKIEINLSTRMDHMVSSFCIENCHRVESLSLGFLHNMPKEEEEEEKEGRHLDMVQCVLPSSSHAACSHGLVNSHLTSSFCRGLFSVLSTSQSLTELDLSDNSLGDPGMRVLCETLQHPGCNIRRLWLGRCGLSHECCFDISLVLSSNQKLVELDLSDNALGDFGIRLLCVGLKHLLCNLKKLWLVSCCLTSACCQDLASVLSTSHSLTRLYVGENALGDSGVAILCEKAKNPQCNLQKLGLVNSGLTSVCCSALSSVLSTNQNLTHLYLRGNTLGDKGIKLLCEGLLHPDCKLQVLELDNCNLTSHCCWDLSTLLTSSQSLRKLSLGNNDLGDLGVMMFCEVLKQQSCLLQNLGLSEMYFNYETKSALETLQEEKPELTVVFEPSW

Row | EC50 [µM] | Structure (SMILES)
1 | 0.32 | Nc1cc(OCC23CCC(CC2)OC3)c2ccc(-c3cc[nH]n3)cc2n1 [Example 47, 4-((2-oxabicyclo[2.2.2]octan-4-yl)methoxy)-7-(1H-pyrazol-3-yl)quinolin-2-amine]
2 | 0.78 | CC(C)(C)OC(=O)N1CCC2(CC1)CC2Nc1nc(N)nc2cc(-c3cc[nH]n3)ccc12 (single isomer, unassigned) [Example 28B]
3 | 1.6 | Nc1nc(N2C[C@H]3C[C@@H]2CO3)c2ccc(-c3cc[nH]n3)cc2n1 (single isomer, unassigned) [Example 10]
4 | 0.39 | CC(C)(C)OC(=O)N1CCC2(CC1)CC2Nc1nc(N)nc2cc(-c3cc[nH]n3)ccc12 (racemic) [Example 27, (rac)-tert-butyl 1-((2-amino-7-(1H-pyrazol-3-yl)quinazolin-4-yl)amino)-6-azaspiro[2.5]octane-6-carboxylate]
5 | 0.085 | Nc1nc(NC2CC23CC3)c2ccc(-c3cc[nH]n3)cc2n1 (single isomer, unassigned) [Example 36A]
6 | 0.57 | Nc1cc(NCC23CCC(CC2)OC3)c2ccc(-c3cc[nH]n3)cc2n1 [Example 48, N4-((2-oxabicyclo[2.2.2]octan-4-yl)methyl)-7-(1H-pyrazol-3-yl)quinoline-2,4-diamine]
7 | 1 | Nc1nc(NC2CC3(CC(O)C3)C2)c2ccc(-c3ccn[nH]3)cc2n1 (centres unmarked) [Example 3, 6-((2-amino-7-(1H-pyrazol-5-yl)quinazolin-4-yl)amino)spiro[3.3]heptan-2-ol]
8 | 0.19 | Nc1nc(NC2CC23CC3)c2ccc(-c3cc[nH]n3)cc2n1 (centres unmarked) [Example 35]
9 | 17.4 | Nc1cc(NC2COCCC23OCCO3)c2ccc(-c3cc[nH]n3)cc2n1 (centres unmarked) [Example 33, 7-(1H-pyrazol-3-yl)-N4-(1,4,8-trioxaspiro[4.5]decan-6-yl)quinoline-2,4-diamine]
10 | 2.58 | CCN1CCC2(CCN(c3nc(N)nc4cc(-c5cc[nH]n5)ccc34)C2)C1 (centres unmarked) [Example 38]
11 | 0.13 | Nc1nc(NC2CC23CC3)c2ccc(-c3cc[nH]n3)cc2n1 (single isomer, unassigned) [Example 36B]
12 | 0.2 | Nc1nc(NC23CC(C2)C3)c2ccc(-c3cc[nH]n3)cc2n1 [Example 13]
13 | 1.94 | CC(C)(C)OC(=O)N1CCC2(CC1)CC2Nc1nc(N)nc2cc(-c3cc[nH]n3)ccc12 (single isomer, unassigned) [Example 28A]

The remaining lines, values behind:

Row | Structure (SMILES) | EC50 [µM]
14 | Nc1nc(NC2C3CCC(C3)C2CO)c2ccc(-c3ccn[nH]3)cc2n1 (centres unmarked) [Example 5] | 0.81
15 | Nc1nc(N2C3CCC2COC3)c2ccc(-c3cc[nH]n3)cc2n1 [Example 12] | 0.64
16 | Nc1cc(N[C@H]2C[C@@H]3C[C@@H](O)[C@H]2O3)c2ccc(-c3ccn[nH]3)cc2n1 (single isomer, unassigned) [Example 32B] | 0.25
17 | Nc1nc(NC2CC3CC(O)C2C3)c2ccc(-c3ccn[nH]3)cc2n1 (single isomer, unassigned) [Example 41A] | 0.16
18 | Nc1nc(N[C@@H]2C[C@H]3C[C@@H](O)C[C@H]3C2)c2ccc(-c3ccn[nH]3)cc2n1 [Example 2, (2r,3aR,5r,6aS)-5-((2-amino-7-(1H-pyrazol-5-yl)quinazolin-4-yl)amino)octahydropentalen-2-ol] | 0.6
19 | Nc1nc(N[C@@H]2[C@@H]3COC[C@@H]32)c2ccc(-c3ccn[nH]3)cc2n1 [Example 6] | 0.31
20 | Nc1cc(NCC23CCC(CC2)OC3)c2ccc(-c3ccsc3)cc2n1 [Example 49, N4-((2-oxabicyclo[2.2.2]octan-4-yl)methyl)-7-(thiophen-3-yl)quinoline-2,4-diamine] | 0.54
21 | Nc1cc(N2C3CCC2COC3)c2ccc(-c3ccn[nH]3)cc2n1 [Example 22] | 2
22 | Nc1cc(N[C@@H]2C[C@H]3C[C@@H]2[C@@H](O)C3)c2ccc(-c3ccn[nH]3)cc2n1 (racemic) [Example 46, rac-(1S,2S,4R,6R)-6-((2-amino-7-(1H-pyrazol-5-yl)quinolin-4-yl)amino)bicyclo[2.2.1]heptan-2-ol] | 1.33
23 | Nc1nc(N[C@H]2C[C@H]3O[C@@H]2C[C@@H]3O)c2ccc(-c3ccn[nH]3)cc2n1 (racemic) [Example 31A, rac-(1R,2S,4R,5S)-5-((2-amino-7-(1H-pyrazol-5-yl)quinazolin-4-yl)amino)-7-oxabicyclo[2.2.1]heptan-2-ol] | 1.21
24 | Nc1nc(N[C@H]2C[C@@H]3C[C@H]2[C@@H](O)C3)c2ccc(-c3ccn[nH]3)cc2n1 (racemic) [Example 44, rac-(1R,2S,4S,6S)-6-((2-amino-7-(1H-pyrazol-5-yl)quinazolin-4-yl)amino)bicyclo[2.2.1]heptan-2-ol] | 2.37
25 | Nc1nc(N[C@H]2C[C@@H]3C[C@H]2C[C@H]3O)c2ccc(-c3ccn[nH]3)cc2n1 (single isomer, unassigned) [Example 43B] | 1.11
26 | Nc1cc(NCC23CC(CO)(C2)C3)c2ccc(-c3ccn[nH]3)cc2n1 [Example 52, (3-(((2-amino-7-(1H-pyrazol-5-yl)quinolin-4-yl)amino)methyl)bicyclo[1.1.1]pentan-1-yl)methanol] | 0.98
27 | Nc1cc(N[C@H]2C3CCC(C3)[C@H]2CO)c2ccc(-c3ccn[nH]3)cc2n1 (single isomer, unassigned) [Example 18B] | 0.98
28 | Nc1nc(N[C@H]2[C@@H]3COC[C@@H]32)c2ccc(-c3ccn[nH]3)cc2n1 [Example 4] | 0.31
29 | Nc1nc(N[C@H]2CC3CC2[C@@H](O)C3)c2ccc(-c3ccn[nH]3)cc2n1 (mixture of isomers) [Example 40, rac-(2S,6S)-6-((2-amino-7-(1H-pyrazol-5-yl)quinazolin-4-yl)amino)bicyclo[2.2.1]heptan-2-ol] | 0.22
30 | Nc1cc(NC2CC3(CC(O)C3)C2)c2ccc(-c3ccn[nH]3)cc2n1 (single isomer, unassigned) [Example 26B, (Ra)-6-(2-amino-7-(1H-pyrazol-5-yl)quinolin-4-ylamino)spiro[3.3]heptan-2-ol] | 0.25
31 | Nc1cc(NC2CC3(CC(O)C3)C2)c2ccc(-c3ccn[nH]3)cc2n1 (centres unmarked) [Example 21] | 0.88
32 | Nc1cc(N[C@H]2C[C@@H]3CC[C@H]2O3)c2ccc(-c3ccn[nH]3)cc2n1 (racemic) [Example 15, rac-N4-((1R,2S,4S)-7-oxabicyclo[2.2.1]heptan-2-yl)-7-(1H-pyrazol-5-yl)quinoline-2,4-diamine] | 0.25
33 | Nc1nc(N[C@@H]2C[C@H]3C[C@H](O)[C@@H]2O3)c2ccc(-c3ccn[nH]3)cc2n1 (racemic) [Example 31B, rac-(1R,2S,4S,6R)-6-((2-amino-7-(1H-pyrazol-5-yl)quinazolin-4-yl)amino)-7-oxabicyclo[2.2.1]heptan-2-ol] | 1.85
34 | Nc1cc(N2CC3CCC(C2)O3)c2ccc(-c3ccn[nH]3)cc2n1 [Example 23] | 0.74
35 | Nc1cc(N[C@H]2[C@@H]3COC[C@@H]32)c2ccc(-c3ccn[nH]3)cc2n1 [Example 20] | 0.11
36 | Nc1cc(N[C@@H]2C[C@@H]3CC[C@H]2O3)c2ccc(-c3ccn[nH]3)cc2n1 (racemic) [Example 30, rac-N4-((1R,2R,4S)-7-oxabicyclo[2.2.1]heptan-2-yl)-7-(1H-pyrazol-5-yl)quinoline-2,4-diamine] | 0.65
37 | Nc1nc(N[C@@H]2C[C@@H]3CC[C@H]2O3)c2ccc(-c3ccn[nH]3)cc2n1 (racemic) [Example 29, rac-N4-((1R,2R,4S)-7-oxabicyclo[2.2.1]heptan-2-yl)-7-(1H-pyrazol-5-yl)quinazoline-2,4-diamine] | 0.5
38 | Nc1nc(NC2CC3CC(O)C2C3)c2ccc(-c3ccn[nH]3)cc2n1 (single isomer, unassigned) [Example 41B] | 0.96
